These results are taken from patent publication US10369340B2, “Device and method for sustained release of low water solubility therapeutic agent in solubilizer” (N[…], INC., priority 2013, dated 2019).

A short description of data set [1]: solubility of testosterone in water and in ethanol. The settings on record: ethanol relative to water. It is filed as physicochemical. From the text:
During use, IDD 100 can be used to administer API 200 by inserting IDD 100 into an area of a human anatomy, including for example, subcutaneously. With IDD 100 inserted into the desired anatomical area, portions of solubilizer 210 (with dissolved API 200) that are small enough to pass through channeled member 130 can be released over time into the area of the human anatomy or for systemic circulation. In certain embodiments, the solubility enhancement of API 200 and solubilizer 210 can range from approximately 2×, 3×, 4×, 5×, 6×, 7×, 8×, 9×, 10×, 11×, 12×, 13×, 14×, 15×, 16×, 17×, 18×, 19×, 20×, 21×, 22×, 23×, 24×, 25×, 26×, 27×, 28×, 29×, 30× or higher. In particular embodiments, the solubility enhancement can be up to 1000× and higher.

For data set [2] the following is noted: cited from earlier work.

As to `C[C@]12CC[C@H]3[C@@H](CCC4=CC(=O)CC[C@@]43C)[C@@H]1CC[C@@H]2O` [testosterone], the “solubility enhancement (increase, ethanol vs water)” value in data set [1] is on record as 20,000 ×. Moreover, the solubility in ethanol entry in data set [2] (ethanol) is “approximately 750 mg/ml”. Moreover, the native water solubility in data set [2] (water) was 35 µg/mL.
